Data set [1] can be described thus: relative stability of polymorphs Form A and Form F. It is filed as physicochemical.
Data set [2] can be described thus: genotoxicity of side-products of the process with compound (IIIa). To be noted: side-products formed when compound (IIIa) is used. The text has this:
According to the process herein described when compound (IIIa) is being used compounds of formulae (X) and (XI) may be produced as side-products, which are genotoxic: […]

For the compound `CCc1nc(C)cn2nc(-c3cc(=O)n4cc(C5CCN(C)CC5)cc(C)c4n3)cc12` [Form F, 2-(4-Ethyl-6-methyl-pyrazolo[1,5-a]pyrazin-2-yl)-9-methyl-7-(1-methyl-piperidin-4-yl)-pyrido[1,2-a]pyrimidin-4-one], the drug product robustness result in data set [1] (Form F) was “improve drug product robustness”. For the same compound, the “relative thermodynamic stability of polymorphs (enantiotropically related)” value in data set [1] (at 80° C. or below, Form F versus Form A) was “more stable”.
Regarding `CCc1nc(C)cn2nc(-c3nc4c(C)cc(C5CCN(C)CC5)cn4c(=O)c3Cl)cc12` [(X)], the genotoxicity result in data set [2] is “genotoxic”.
Take `CCc1nc(C)cn2nc(-c3nc4c(C)cc(C5CCN(C)CC5)cn4c(=O)c3C(=O)CCl)cc12` [(XI)]: in data set [2], the genotoxicity entry is recorded as “genotoxic”.

The values above are taken from US10538536B2, “Process for the preparation of 2-pyrazolo[1,5-a]pyrazin-2-ylpyrido[1,2-a]pyrimidin-4-one compounds” (Hoffmann-La Roche Inc., priority 2016, dated 2020).
